Patent publication US20110077230A1, “COPPER ORGANOCOMPLEXES, USE THEREOF AS ANTITUMOR MEANS AND FOR PROTECTING HEALTHY TISSUE FROM IONIZING RADIATION” (CHARITE - UNIVERSITATSMEDIZIN BERLIN, priority 2008, published 2011)

Columns and labels:
[1] = test system: Walker carcinosarcoma; assay: Nitrosyl complexes of hem iron (EPR) in Walker carcinosarcoma; type: in vivo, rats; conditions: 30 mg/kg intraabdominally in liposomes, especially with hyperglycemia and ultrasound
From the text: The oxygen metabolism in malignant cells is affected in such a way that increased NO production in these cells results in increased binding of NO to the hem iron, thereby disturbing the normal function thereof. The formation of such NO bonds becomes manifest in the EPR spectrum as a characteristic triplet overlying a singlet.
The effect of complex A on the concentration of Fe—NO bonds was investigated in an experiment using rats. The Walker carcinosarcoma was transplanted in the rats. 17 days after transplantation the animals were administered intraabdominally with complex A at a dosage of 30 mg/kg, suspended in liposomes from egg lecithin. Some of the animals also received glucose or glucose plus ultrasound.

[2] = test system: BJAB cells (lymphoma cell line); assay: Induction of apoptosis (DNA fragmentation, propidium iodide, FACS) in BJAB cells; type: cell-based, human; conditions: 0.1 mmol of complex A, 72 hours
Experimental: BJAB cells (lymphoma cell line) at a concentration of 1×10^5/ml were treated with increasing concentrations of complex A dissolved in DMSO and incubated for 72 hours at 37° C. and 5% CO2. Following propidium iodide staining, the DNA fragments were detected using flow cytometry (FACS analysis). KO (untreated cell suspension) and DMSO were carried along in an equivalent treatment.

[3] = test system: human mammary gland tumor cells, T2N1M0 stage; assay: In vitro effect on human mammary gland tumor cells, Experiment 1; type: cell-based
Experimental: Tumor cells were collected from the surgical material of female patients suffering from mammary carcinoma at two different stages. The tumor tissue was added with sterile 0.25% trypsin solution and centrifuged repeatedly in RPMI-1640 nutrient medium for 15 minutes at 1500 revolutions per minute. The amount of resulting cells was counted and the suspension of tumor cells divided into five equal groups. The RPMI-1640 nutrient medium was added with 12% fetal calf serum. The cells were incubated for 48 h at 37° C. in a 5% CO2 stream.
The preparations were dissolved in 4% DMSO and physiological saline and acidified with HCl.
Two experiments were performed using cancer cells derived from tumors of different stages. To differentiate the various stages of cancer, the TNM classification is used internationally which takes into account the tumor size (T), lymph node affection (N=nodal status) and the extent of metastasis (M).
(T2: tumor up to 5 cm; N1; metastases in 3 lymph nodes; M0: no distant metastases). A suspension including 40 million cells was added with 50 μl of each preparation.
The 5 groups with cancer cells received the following:
After subjecting the preparations to flow incubation for 60 minutes, trypan blue stained cells were produced, and dead cells and apoptosis could be determined; dead cells and apoptotic cells were determined in specific units of time and morphological findings.

[4] = test system: BJAB cells; assay: Change in mitochondrial membrane potential (JC-1, flow cytometry) in BJAB cells; type: cell-based, human; conditions: 48 hours, concentration-dependent
Experimental: Following treatment of the BJAB cells with different concentrations of complex A, carrying along a zero control and a solvent control, the cells were incubated for 48 hours at a temperature of 37° C. and 5% CO2. […] A concentration-dependent change of the mitochondrial membrane potential induced by complex A is found in more than 30% of the cells.

[5] = test system: melanoma B 16; assay: B 16 melanoma in mice, intraabdominal administration; type: in vivo, mice of the line C 57Bl; conditions: for Average volume of tumor / Average weight of tumor: days 3, 5, 7, 9
Experimental: The melanoma B 16 was implanted in 20 mice of the line C 57Bl by subcutaneous injection into the right thigh. The animals were divided into four groups of five mice each. Group I received complex A at a dosage of 7 mg/kg, dissolved in DMSO, which was administered intraabdominally in a 4% suspension in physiological saline. Each administration was performed 3, 5, 7 and 9 days after trans-plantation of the tumor.
Group II was treated as group I, but using a dosage of 5 mg/kg.
Group III was treated as group I, but received 5 mg/kg of melphalan hydrochloride instead of complex A.
Group IV remained untreated.

[6] = test system: Ehrlich ascites carcinoma (EAC) cells; assay: NADH state (fluorescence) in EAC cells; type: cell-based, mice
Experimental: (§1) The Ehrlich ascites carcinoma (EAC) was obtained from white male mice of the strain MNR1 and the thymocytes from the thymus of rats of the Wistar line. Vitality of the cells was tested by vital staining using trypan blue and experiments and determined to be no less than 95% in all experiments. The NADH state in the EAC cells was assessed with reference to their fluorescence intensity. Measurement of the intracellular calcium concentration was performed according to the standard methodology of fluorescence using chlortetracycline. The membrane potential was measured using the fluorescent dye No. 1104. NADH is a source of electrons in the oxidative phosphorylation process. […] These effects are directed to inhibiting the NAD-dependent dehydrogenase. As a result, the respiratory chain in the tumor cells is inhibited.

[7] = test system: thymocytes; assay: Cytosolic calcium (chlortetracycline fluorescence) in thymocytes; type: cell-based, rats of the Wistar line; conditions: depending on the dose
Experimental: as §1
The concentration of intracellular calcium is a trigger for a number of intracellular processes (FIG. 17c, 17d).

[8] = test system: Hep-2 tumor cells of human laryngeal carcinoma; assay: Copper uptake by Hep-2 cells (EPR); type: cell-based
Experimental: Complex A dissolved in Tween 80 was mixed with liposomes from lecithin. This mixture was added with a culture of Hep-2 cells, and the EPR spectra were recorded over time. A culture having no complex A preparation was measured for comparison. The EPR spectra allow quantitative determination of the copper content in the tumor cells. […] This corresponds to an intake of 10 copper-containing molecules in a cell. This saturation value of the cells is reached within 1.5 to 2 hours (FIG. 21). In addition, the cell suspension was purified by filtration, and the filtrate containing the cellular components was fractionated using a centrifuge.

[9] = test system: hematopoietic cells in the spleen; assay: Radioprotective effect in irradiated mice; type: in vivo, white mice; conditions: 6 Gray; 5 mg/kg two hours prior to and three days after irradiation; day 9
Experimental: White mice of no particular race were irradiated with a sublethal dose of 6 Gray. […] The animals were sacrificed on day 9 after irradiation, and the number of hematopoietic cells in the spleen was determined. No hematopoietic cells were detected in the spleen of untreated animals.

Substance: Copper-sarcolysine hydrochloride complex [complex A]
- concentration of Fe—NO bonds (EPR) [1]: significantly reduces
- induction of apoptosis, % of the cells [2]: 43.5%
- Living cells, % ([3]; Experiment 1, T2N1M0): 24.0 ± 1.90%
- Dead cells, % ([3]; Experiment 1, T2N1M0, 40 million cells, 50 μl of preparation): 76.0 ± 2.06%
- cells with change of the mitochondrial membrane potential [4]: more than 30%
- Apoptotic index AI ([5]; 5 mg/kg intraabdominally): 3.68 ‰
- Bone marrow index MI BM ([5]; 5 mg/kg intraabdominally): 3.975 ‰
- Inhibition of tumor growth, mass percent ([5]; 5 mg/kg intraabdominally): mass percent 84.44%
- Inhibition of tumor growth, volume percent ([5]; 5 mg/kg intraabdominally): volume percent 80.00%
- Mitotic index of tumor cells MI ([5]; 5 mg/kg intraabdominally): 2.175 ‰
- Average volume of tumor ([5]; 5 mg/kg intraabdominally): 0.436 cm^3
- Average weight of tumor ([5]; 5 mg/kg intraabdominally): 202.25 mg
- Apoptotic index AI ([5]; 7 mg/kg intraabdominally): 4.25 ‰
- Bone marrow index MI BM ([5]; 7 mg/kg intraabdominally): 3.575 ‰
- Inhibition of tumor growth, mass percent ([5]; 7 mg/kg intraabdominally): mass percent 89.5%
- Inhibition of tumor growth, volume percent ([5]; 7 mg/kg intraabdominally): volume percent 98.67%
- Mitotic index of tumor cells MI ([5]; 7 mg/kg intraabdominally): 1.3. ‰
- Average volume of tumor ([5]; 7 mg/kg intraabdominally): 0.029 cm^3
- Average weight of tumor ([5]; 7 mg/kg intraabdominally): 136.8 mg
- response to oligomycin [6]: reduce the response to oligomycin
- concentration of cytosolic calcium [7]: increase
- copper absorbed by Hep-2 cells ([8]; complex A in Tween 80 with lecithin liposomes, saturation value): 4.5×10^13 spin per gram
- intake of copper-containing molecules in a cell ([8]; corresponds to the spin value): 10 molecules in a cell
- intracellular accumulation of the copper complex ([8]; fractionated filtrate, EPR signal of copper): accumulated almost entirely in the nuclear chromatin
- number of colonies of hematopoietic cells in the spleen [9]: about 40 colonies
